Measurements as given in ChEMBL document CHEMBL1201862, “PubChem BioAssay data set” (2004).
Where a name gives a salt, the structure may show the parent alone. One block for each compound: values may come before it. Calls of active or inactive are those of the source.

Experiments:
[1] = target: T1, Sentrin-specific protease 8 (Homo sapiens, UniProt Q96LD8); assay: inhibition of human SENP8 cleavage activity – biochemical, luminescence, SAR follow-up (AID 504501); type: functional
T1 sequence (Q96LD8 whole entry): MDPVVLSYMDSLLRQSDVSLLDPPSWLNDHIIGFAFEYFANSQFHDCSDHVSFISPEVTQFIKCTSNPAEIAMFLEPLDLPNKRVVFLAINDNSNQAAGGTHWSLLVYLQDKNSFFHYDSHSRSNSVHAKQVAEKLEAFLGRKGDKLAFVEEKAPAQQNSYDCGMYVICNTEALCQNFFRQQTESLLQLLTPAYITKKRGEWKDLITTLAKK

[2] = target: T2, Sentrin-specific protease 6 (Homo sapiens, UniProt Q9GZR1); assay: SAR Analysis of small molecule inhibitors of Sentrin-specific protease 6 (SENP6) using a Luminescent assay. [Related pubchem assays (depositor defined):AID2582, AID2599]; type: functional
T2 sequence (Q9GZR1 whole entry): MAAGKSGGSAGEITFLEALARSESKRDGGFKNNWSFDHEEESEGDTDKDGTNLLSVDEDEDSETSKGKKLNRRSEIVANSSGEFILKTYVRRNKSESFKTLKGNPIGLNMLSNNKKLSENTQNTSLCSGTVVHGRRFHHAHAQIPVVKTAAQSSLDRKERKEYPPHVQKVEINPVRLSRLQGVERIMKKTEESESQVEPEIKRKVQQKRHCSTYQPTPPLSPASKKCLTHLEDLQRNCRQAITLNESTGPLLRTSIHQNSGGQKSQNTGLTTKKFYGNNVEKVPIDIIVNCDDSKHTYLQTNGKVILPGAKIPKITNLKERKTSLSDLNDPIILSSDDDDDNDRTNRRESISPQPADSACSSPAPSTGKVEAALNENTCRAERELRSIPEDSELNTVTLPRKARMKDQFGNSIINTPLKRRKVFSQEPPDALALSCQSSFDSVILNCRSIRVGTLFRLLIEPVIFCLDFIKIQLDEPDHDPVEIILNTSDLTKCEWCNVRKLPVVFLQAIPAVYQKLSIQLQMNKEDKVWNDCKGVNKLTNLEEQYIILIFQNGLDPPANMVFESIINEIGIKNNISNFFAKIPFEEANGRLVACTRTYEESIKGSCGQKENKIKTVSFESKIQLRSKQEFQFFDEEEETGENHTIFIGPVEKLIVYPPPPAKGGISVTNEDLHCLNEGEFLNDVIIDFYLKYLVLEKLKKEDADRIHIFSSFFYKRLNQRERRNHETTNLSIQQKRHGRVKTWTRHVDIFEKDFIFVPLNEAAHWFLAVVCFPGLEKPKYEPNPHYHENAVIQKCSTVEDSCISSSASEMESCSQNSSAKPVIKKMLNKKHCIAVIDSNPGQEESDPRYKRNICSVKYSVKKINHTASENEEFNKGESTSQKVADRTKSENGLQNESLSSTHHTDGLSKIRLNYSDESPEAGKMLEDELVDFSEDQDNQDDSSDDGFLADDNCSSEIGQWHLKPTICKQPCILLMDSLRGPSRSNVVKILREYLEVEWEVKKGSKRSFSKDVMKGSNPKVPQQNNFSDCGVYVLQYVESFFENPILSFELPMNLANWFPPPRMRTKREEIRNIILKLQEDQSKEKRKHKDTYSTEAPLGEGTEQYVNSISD

Caspase-3 = target: T3, Caspase-3 (Homo sapiens, UniProt P42574); assay: SAR Analysis of small molecule inhibitors of Sentrin-specific proteases (SENPs) using a Caspase-3 Selectivity assay. [Related pubchem assays (depositor defined):AID2540, AID2599, AID434973, AID489001]; type: functional
T3 sequence (P42574 whole entry): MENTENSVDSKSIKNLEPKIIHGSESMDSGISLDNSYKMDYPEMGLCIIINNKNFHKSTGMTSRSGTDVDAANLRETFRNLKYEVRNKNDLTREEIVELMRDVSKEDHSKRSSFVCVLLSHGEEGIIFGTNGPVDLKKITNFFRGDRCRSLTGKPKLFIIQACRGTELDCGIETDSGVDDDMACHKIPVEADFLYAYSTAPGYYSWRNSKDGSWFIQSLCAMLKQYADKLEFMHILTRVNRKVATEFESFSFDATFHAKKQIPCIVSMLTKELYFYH

[3] = target: T4, Sentrin-specific protease 7 (Homo sapiens, UniProt Q9BQF6); assay: inhibition of human SENP7 cleavage activity – biochemical, luminescence, set 2, SAR follow-up (AID 588600); type: functional
T4 sequence (Q9BQF6 whole entry): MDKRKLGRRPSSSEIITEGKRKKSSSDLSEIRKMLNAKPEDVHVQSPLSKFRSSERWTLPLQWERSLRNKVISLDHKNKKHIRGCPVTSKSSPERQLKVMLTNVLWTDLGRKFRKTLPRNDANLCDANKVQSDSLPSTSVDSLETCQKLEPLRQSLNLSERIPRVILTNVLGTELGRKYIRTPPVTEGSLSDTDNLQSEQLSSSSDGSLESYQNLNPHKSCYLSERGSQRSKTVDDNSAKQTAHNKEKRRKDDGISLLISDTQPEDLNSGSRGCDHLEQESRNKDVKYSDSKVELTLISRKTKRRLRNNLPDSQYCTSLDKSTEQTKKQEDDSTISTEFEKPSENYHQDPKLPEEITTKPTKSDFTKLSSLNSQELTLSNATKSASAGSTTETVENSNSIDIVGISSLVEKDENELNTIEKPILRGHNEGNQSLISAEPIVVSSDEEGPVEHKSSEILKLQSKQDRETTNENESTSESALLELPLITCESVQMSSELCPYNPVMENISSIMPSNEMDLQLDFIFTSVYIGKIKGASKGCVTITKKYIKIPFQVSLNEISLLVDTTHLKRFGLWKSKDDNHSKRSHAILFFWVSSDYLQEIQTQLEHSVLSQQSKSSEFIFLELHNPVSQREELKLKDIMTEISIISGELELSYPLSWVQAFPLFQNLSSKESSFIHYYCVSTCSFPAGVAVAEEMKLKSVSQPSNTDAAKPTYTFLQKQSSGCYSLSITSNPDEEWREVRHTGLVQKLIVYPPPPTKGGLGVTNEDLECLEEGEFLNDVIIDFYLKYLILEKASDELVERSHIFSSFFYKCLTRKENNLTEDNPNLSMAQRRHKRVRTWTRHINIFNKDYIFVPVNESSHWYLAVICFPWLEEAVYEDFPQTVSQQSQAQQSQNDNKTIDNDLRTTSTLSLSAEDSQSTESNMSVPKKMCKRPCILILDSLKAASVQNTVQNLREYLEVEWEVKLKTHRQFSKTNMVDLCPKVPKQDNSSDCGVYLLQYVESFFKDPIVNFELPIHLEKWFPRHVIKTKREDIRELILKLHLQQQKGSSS

[4] = target: T4, Sentrin-specific protease 7; assay: inhibition of human SENP7 cleavage activity – biochemical, luminescence, SAR follow-up (AID 504497); type: functional
[5] = target: T2, Sentrin-specific protease 6; assay: inhibition of human SENP6 catalytic domain – biochemical, luminescence, set 2, SAR follow-up (AID 588598); type: functional
[6] = target: T1, Sentrin-specific protease 8; assay: inhibition of sentrin protease 8 – biochemical, luminescence, set 2, SAR follow-up (AID 588601); type: functional
Phospholipase A2 = Phospholipase A2 (Homo sapiens, UniProt P04054); type: functional;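 further: confirmatory dose-response counterscreen on phospholipase A2, testing hits that came from an ultra-high-throughput screen for ATG4B inhibitors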
Cysteine protease ATG4B = Cysteine protease ATG4B (Homo sapiens, UniProt Q9Y4P1); type: functional;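 further: Fluorescence-based dose-response confirmation assay measuring inhibition of ATG4B activity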
[7] = loss of viability in HepG2 cells – cell-based, CellTiter-Glo, cherry-picked, cytotoxicity control for Shn3 inhibitor project, dose response (AID 624134); type: functional
[8] = reduction of Shn3 3'UTR-driven luciferase in osteoblasts – cell-based, Clone20 osteoblasts, firefly luciferase, cherry-picked, dose response (AID 624132); type: functional;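 further: firefly luciferase luminescence from reporter carrying the Shn3 3'UTR in osteoblasts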
CHO = CHO cell viability loss, potency – luminescence, cytotoxicity control for TLR9-MyD88 binding inhibitor project, dose response (AID 588339); type: functional, cell-based, hamster; details: Cricetulus griseus;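 further: CHO cells stably coexpressing TLR9 and MyD88 fusions from primary screen; compound exposure lasted 48 hours before viability readout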
Fatty acid synthase [9] = target: T5, Fatty acid synthase (Homo sapiens, UniProt P49327); assay: inhibition of human FAS-TE enzyme activity – biochemical, endpoint fluorescence intensity, uHTS hits, dose response (AID 624327); type: functional;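 further: fluorescence from hydrolysis of an O-methyl fluorescein acyl ester substrate by the enzyme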
[10] = target: Beta-2 adrenergic receptor (Homo sapiens, UniProt P07550); assay: ADRB2 activation measured by internalization – cell-based, FAP fluorogen, flow cytometry, cherry pick 1, dose response (AID 588763); type: functional
[11] = reduced cellular PGC1a acetyl-lysine signal – cell-based, cherry-picked samples, dose response (AID 720514); type: functional;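 further: potency may reflect raised or lowered acetylation signal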
Fatty acid synthase [12] = target: T5, Fatty acid synthase; assay: inhibition of human FAS-TE enzyme activity – biochemical, kinetic fluorescence intensity, dose response (AID 624326); type: functional;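 further: rate of fluorescence rise from hydrolysis of a fluorogenic O-methyl fluorescein ester substrate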
[13] = target: Heat shock protein HSP 90-alpha (Homo sapiens, UniProt P07900); type: functional, organism-based
Beta Lactamase = Beta Lactamase (Pseudomonas aeruginosa, UniProt Q932Y6); assay: BLA reporter interference, concentration series – BLA reporter cells, FRET fluorescence, artefact control for TLR9-MyD88 binding inhibitor project, dose response (AID 588341); type: cell-based;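 further: cell based assay in CHO-K1 cells stably expressing beta-lactamase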
[14] = non-specific 3'UTR reporter inhibition in Clone20-Shn3RL – cell-based, Renilla luciferase, cherry-picked, counter-screen for Shn3 inhibitor project, dose response (AID 624133); type: functional
[15] = viability of PTEN-deleted HCT116 cells – cell-based, HCT116 PTEN knockout, dose response (AID 1047); type: functional;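 further: HCT116 colon tumor cells with PTEN knocked out; cells exposed to compound for 60 hours before readout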
[16] = target: T6, RNA-binding protein pos-1 (Caenorhabditis elegans, UniProt G5EF15); assay: disruptors of C. elegans POS-1 RNA interaction – biochemical, fluorescence polarization, dose response (AID 1964);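 further: purified POS-1 fused to maltose binding protein made in E. coli; potency of compounds blocking POS-1 binding to fluorescent RNA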
T6 sequence (G5EF15 whole entry): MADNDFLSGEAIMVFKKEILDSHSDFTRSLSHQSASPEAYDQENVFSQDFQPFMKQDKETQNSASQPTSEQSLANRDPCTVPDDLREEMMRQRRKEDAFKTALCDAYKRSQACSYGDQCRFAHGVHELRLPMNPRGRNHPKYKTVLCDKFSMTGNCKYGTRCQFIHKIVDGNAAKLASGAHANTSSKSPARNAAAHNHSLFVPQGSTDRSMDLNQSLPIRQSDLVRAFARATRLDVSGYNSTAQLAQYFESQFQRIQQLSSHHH

[17] = target: T7, Zinc finger protein mex-5 (Caenorhabditis elegans, UniProt Q9XUB2); assay: potency of MEX-5 RNA-binding blockers – biochemical, C. elegans, fluorescence polarization, dose response (AID 1960)
T7 sequence (Q9XUB2 whole entry): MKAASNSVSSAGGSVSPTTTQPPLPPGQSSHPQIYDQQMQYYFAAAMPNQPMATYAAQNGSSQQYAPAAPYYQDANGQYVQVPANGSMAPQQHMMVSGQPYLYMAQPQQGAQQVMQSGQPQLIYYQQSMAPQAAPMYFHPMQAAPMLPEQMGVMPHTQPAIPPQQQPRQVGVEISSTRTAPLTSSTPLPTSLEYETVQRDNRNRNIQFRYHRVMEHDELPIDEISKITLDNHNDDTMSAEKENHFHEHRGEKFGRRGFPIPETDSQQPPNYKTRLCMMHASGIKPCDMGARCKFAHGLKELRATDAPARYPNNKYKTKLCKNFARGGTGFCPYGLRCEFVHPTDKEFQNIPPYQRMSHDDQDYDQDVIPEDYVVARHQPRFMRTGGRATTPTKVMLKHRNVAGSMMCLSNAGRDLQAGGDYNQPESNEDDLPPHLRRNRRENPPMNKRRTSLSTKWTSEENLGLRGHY

[18] = viability of HCT116 lacking mutant beta-catenin – cell-based, human colon tumor, dose response (AID 1045); type: functional;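 further: HCT116 colon tumor cells with beta catenin knocked out; cells exposed to compound for 60 hours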

Sequence of Beta-2 adrenergic receptor (P07550 whole entry): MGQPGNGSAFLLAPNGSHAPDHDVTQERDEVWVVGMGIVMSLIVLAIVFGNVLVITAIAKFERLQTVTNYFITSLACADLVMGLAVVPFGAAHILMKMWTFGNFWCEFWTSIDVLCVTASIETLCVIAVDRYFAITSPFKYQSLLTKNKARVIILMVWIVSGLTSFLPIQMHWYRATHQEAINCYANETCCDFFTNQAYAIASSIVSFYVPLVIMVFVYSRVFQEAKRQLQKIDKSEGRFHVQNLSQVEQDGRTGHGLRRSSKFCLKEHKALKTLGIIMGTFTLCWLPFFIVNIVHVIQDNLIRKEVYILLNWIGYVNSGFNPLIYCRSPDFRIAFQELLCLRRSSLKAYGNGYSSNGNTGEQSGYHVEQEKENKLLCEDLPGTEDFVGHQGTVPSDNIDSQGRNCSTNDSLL
Sequence of Phospholipase A2 (P04054 whole entry): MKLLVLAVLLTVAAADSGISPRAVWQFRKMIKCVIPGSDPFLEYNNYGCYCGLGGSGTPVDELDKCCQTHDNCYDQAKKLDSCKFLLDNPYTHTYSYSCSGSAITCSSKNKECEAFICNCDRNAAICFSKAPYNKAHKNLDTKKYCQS
T5 sequence (P49327 whole entry): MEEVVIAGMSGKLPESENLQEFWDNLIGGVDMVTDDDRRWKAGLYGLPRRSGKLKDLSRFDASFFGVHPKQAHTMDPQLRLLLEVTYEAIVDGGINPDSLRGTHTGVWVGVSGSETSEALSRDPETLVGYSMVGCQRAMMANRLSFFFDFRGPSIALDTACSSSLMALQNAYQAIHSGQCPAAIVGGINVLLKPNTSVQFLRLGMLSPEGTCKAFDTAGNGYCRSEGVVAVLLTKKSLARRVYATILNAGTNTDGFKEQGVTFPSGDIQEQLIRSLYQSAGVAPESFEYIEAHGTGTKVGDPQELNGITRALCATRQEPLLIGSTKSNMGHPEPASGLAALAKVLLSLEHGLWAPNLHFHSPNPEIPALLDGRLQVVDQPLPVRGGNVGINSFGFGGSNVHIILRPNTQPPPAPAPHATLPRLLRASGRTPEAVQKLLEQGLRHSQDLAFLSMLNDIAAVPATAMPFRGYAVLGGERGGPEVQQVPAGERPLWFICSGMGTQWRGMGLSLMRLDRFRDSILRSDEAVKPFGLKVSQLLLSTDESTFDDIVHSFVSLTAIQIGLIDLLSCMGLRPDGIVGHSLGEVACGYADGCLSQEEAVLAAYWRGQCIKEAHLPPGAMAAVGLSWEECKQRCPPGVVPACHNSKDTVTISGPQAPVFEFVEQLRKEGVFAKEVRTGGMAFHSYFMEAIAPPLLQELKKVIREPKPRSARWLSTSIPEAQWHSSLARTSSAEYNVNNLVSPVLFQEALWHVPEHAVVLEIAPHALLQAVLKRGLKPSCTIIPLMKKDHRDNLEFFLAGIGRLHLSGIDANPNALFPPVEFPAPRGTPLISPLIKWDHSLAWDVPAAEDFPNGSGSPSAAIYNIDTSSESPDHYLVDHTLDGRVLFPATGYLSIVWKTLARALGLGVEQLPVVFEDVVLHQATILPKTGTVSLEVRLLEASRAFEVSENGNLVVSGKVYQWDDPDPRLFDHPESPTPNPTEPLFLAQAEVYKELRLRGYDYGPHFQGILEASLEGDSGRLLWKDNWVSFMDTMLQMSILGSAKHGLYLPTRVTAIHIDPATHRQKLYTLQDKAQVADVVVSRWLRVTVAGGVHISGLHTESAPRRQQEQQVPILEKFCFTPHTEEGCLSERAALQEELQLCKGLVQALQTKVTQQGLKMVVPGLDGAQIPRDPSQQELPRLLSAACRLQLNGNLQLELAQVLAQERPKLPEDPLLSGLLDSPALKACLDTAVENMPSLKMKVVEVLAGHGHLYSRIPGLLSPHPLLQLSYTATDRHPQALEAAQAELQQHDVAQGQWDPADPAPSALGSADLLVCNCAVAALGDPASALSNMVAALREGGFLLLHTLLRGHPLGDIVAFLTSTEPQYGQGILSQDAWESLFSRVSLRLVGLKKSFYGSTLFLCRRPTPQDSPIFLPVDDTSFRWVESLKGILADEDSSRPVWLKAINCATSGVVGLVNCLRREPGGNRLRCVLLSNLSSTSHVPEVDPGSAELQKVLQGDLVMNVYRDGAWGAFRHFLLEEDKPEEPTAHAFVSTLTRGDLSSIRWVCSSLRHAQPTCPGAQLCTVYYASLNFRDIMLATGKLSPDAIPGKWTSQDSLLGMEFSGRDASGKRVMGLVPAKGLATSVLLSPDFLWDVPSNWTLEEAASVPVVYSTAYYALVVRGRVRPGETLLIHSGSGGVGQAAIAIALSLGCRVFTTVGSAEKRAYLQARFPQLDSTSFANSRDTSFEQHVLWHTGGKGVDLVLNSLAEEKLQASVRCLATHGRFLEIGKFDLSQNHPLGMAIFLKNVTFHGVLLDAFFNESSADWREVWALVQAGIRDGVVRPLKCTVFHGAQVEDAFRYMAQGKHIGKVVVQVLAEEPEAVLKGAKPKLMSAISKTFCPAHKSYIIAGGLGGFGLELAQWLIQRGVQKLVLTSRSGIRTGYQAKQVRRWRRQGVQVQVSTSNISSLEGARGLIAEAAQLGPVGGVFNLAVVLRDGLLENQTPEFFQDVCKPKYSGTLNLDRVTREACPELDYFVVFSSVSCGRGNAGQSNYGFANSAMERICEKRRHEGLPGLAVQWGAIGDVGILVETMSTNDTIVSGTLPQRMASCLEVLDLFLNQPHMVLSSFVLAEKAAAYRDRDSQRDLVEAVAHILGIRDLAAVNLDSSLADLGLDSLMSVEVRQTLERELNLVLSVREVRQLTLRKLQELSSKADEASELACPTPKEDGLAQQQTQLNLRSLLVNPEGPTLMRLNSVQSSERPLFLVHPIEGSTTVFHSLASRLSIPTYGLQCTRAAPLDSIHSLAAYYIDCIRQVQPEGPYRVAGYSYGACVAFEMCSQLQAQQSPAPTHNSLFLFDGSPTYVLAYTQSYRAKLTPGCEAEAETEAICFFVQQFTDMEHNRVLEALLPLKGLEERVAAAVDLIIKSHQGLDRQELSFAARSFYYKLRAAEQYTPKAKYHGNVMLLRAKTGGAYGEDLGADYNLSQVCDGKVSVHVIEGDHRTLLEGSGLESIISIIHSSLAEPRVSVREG
Sequence of Cysteine protease ATG4B (Q9Y4P1 whole entry): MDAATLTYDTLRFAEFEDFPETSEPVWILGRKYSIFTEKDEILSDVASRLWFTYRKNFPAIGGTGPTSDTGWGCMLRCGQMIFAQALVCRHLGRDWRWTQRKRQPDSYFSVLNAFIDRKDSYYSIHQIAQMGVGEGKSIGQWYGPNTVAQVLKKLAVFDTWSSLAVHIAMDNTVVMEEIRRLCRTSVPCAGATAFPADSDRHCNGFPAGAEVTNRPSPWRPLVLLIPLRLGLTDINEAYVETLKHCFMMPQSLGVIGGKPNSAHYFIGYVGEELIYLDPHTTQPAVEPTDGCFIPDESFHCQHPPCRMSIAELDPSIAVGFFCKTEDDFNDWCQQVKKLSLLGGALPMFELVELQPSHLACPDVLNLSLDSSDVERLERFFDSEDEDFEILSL
Sequence of Beta Lactamase (Q932Y6 whole entry): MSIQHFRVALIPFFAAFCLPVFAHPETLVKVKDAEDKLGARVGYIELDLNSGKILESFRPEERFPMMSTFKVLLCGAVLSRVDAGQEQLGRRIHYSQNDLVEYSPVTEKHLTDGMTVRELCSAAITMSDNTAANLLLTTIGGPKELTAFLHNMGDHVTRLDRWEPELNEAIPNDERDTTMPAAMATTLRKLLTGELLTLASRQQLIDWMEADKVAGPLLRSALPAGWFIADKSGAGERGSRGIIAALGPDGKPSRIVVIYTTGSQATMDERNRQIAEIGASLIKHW

Compound: CCCNC(=O)c1nnsc1S(=O)(=O)c1ccc(Cl)cc1
AC50 [7]: 16.4 µM (active)
AC50 [8]: 3.63 µM (active)
IC50 (CHO): 2.45 µM (active)
IC50 (Fatty acid synthase [9]): 12.7 µM (active)
EC50 [10]: 9.54 µM (active)
AC50 [11]: 11.7 µM (active)
IC50 (Fatty acid synthase [12]): 10.4 µM (active)
AC50 [13]: 0.602 µM (active)
IC50 (Beta Lactamase): 16.3 µM (inactive)
AC50 [14]: 2.88 µM (active)

Compound: COc1ccc(C(CC(=O)NCc2ccccc2)C(C)C)cc1 (stereo unspecified)
IC50 (Phospholipase A2): 7.25 µM (active)
IC50 (Cysteine protease ATG4B): 8.14 µM (active)

Compound: CCC(NC(C)C)C(O)c1ccc(O)c(O)c1 (stereo unspecified) [ISOETHARINE MESYLATE]
EC50 [15]: 24.1 µM (active)
EC50 [16]: > 300 µM (not active)
EC50 [17]: 125 µM (active)
EC50 [10]: 3.84 µM (active)
EC50 [18]: 20.7 µM (active)

Further lines, with some results ahead:

IC50 [2]: 0.67 µM (active)
IC50 (Caspase-3): 0.51 µM (active)
IC50 [3]: 0.589 µM (active)
IC50 [4]: 0.49 µM (active)
IC50 [5]: 0.58 µM (active)
Compound: O=C(Nc1nc2ccccc2s1)c1cc2ccccc2s1
IC50 [1]: 0.66 µM (active)
IC50 [6]: 0.543 µM (active)

IC50 (Phospholipase A2): 10.6 µM (active)
IC50 (Cysteine protease ATG4B): 18.4 µM (active)
Compound: Fc1ccc(CNC(=S)NCc2ccccc2)cc1
